In one assay the test system is HLA-DQ. In words: Peptide inhibition study, clone E as indicator responder cell (binding of peptide 43 to HLA-DQ). The format is cell-based, human. The note with it: FIG. 7; 5 μmolar peptide 43, 250 μmolar inhibitory peptide. An excerpt: Conditions are otherwise as described in FIG. 4.
Five μmolar concentration of stimulatory peptide (peptide 43) and 250 μmolar of the inhibitory peptides were used. Conditions were otherwise as described in FIG. 4. Note: Peptide 65 and 81 are non-stimulatory in a concentration of 10 μmolar (FIG. 6), but are stimulatory in a concentration of 250 μmolar.
In order to map peptide binding to HLA-DR and HLA-DQ, we tested the non-stimulatory p21 ras peptides for capacity to inhibit the binding of peptide 42 to HLA-DR, using stimulation of clone I as indicator system, and inhibition of peptide 43 binding to HLA-DQ using stimulation of clone E as an indicator system.

The next assay concerns the target DQw6. In words: Inhibition of binding of iodinated indicator peptide P104 to affinity purified HLA DQw6. More on the design: species or system human. To be noted: tested 0,33-10 μM.
Another assay concerns DR1. Type of assay: binding, human. To be noted: indicator iodinated P34, tested 0,33-10 μM.
The next assay concerns T cell clone F. In words: T cell proliferation assay, clone F. The format is cell-based, human. To be noted: for stimulation of clone F by truncated forms of peptide 45: 10 μmolar. The protocol: (§1) FIG. 2 and FIGS. 2a-2e show the specificity of the T cell clones I, B, E and F in T cell proliferation assays. Assays were set up in triplicate in 96 well plates, with the five peptides present in the original peptide mixture as stimulating antigens. The wells contained 50000 irradiated (8000 R) autologous EBV transformed B cells as antigen presenting cells (APC).
(§2) Cultures were incubated for 2 days at 37° C. in a 5% CO2 incubator, and pulsed overnight with 1 μCi of ^3 H-thymidine (Amersham, England) per well before harvesting onto glass fibre filters by an automated cell harvester (Scatron, Lierbyen, Norway). Thymidine incorporation into DNA was quantitated by liquid scintillation counting using an LKB 1205 Betaplate Liquid Scintillation counter. Data are given as medians of triplicate cultures. Controls included T cell clones cultured alone, or with APC in the absence of peptides. The panels are scaled according to the magnitude of the positive response.
The conditions of the assay were exactly as described in FIG. 6.
The peptide concentration was as given in the Figure, and the conditions of the assay were otherwise as described for FIG. 6.

The next assay relates to T cell clone E. In words: T cell proliferation assay, clone E. Type of assay: cell-based, human. The protocol: as §1, §2
The conditions of the assay were as described in FIG. 2. […]

Where no end group is shown, it is not given here.

With “AGVVGKSALAL [compound 68, N-terminally truncated form of peptide 43]”, the “inhibition of clone E response to peptide 43 by truncated peptides” value (from here on “inhibition of clone E response”) in the assay on HLA-DQ is given as “inhibit”.

As for “GAGVVGKSALAL [compound 67, N-terminally truncated form of peptide 43]”, in the assay with HLA-DQ, the “inhibition of clone E response” value is recorded as “inhibit”.

As for “P104: printed Y----------- (SEQ ID NO. 93); iodinated P104 was the indicator peptide for binding to DQw6 (YVVVGAAGVGKSA; also: iodinated) [reference compound]”, the IC50 was under 0.33 µM on DQw6 and 0.78 µM with DR1.

As for “VGAGVVGKSALAL [compound 66, N-terminally truncated form of peptide 43]”, in the assay on HLA-DQ, the “inhibition of clone E response” value is “inhibit”.

Regarding VVGAAGVGKS [P88], the IC50 at DQw6 stood at 8.97 µM. For the same substance, the “dose-response of clone F, potency compared to peptide 45” value in the assay on T cell clone F (FIG. 16) was “far less potent”.

At DQw6, VVGAAGVGKSA [p90] showed an IC50 of 9.98 µM.

“VVGAAGVGKSALAL [compound 70, N-terminally truncated form of peptide 45]”: the “stimulation of clone F by truncated forms of peptide 45” value in the assay on T cell clone F was “stimulate”.

“VVGAGVVGKSALAL [compound 65, N-terminally truncated form of peptide 43]”: the “stimulation of clone E by truncated forms of peptide 43” value is reported as “non-stimulatory” in the assay with T cell clone E (10 μmolar); “become stimulatory” in the assay on T cell clone E (250 μmolar); “stimulatory” in the assay with T cell clone E (250 μmolar, listed as Peptide 65).

For VVVGAAGVGKS [P89], at DQw6, the half-inhibitory concentration (IC50) came to 10 µM.

Regarding VVVGAAGVGKSA [p91], the IC50 at DQw6 is 1.29 µM.

In the case of “VVVGAAGVGKSALAL [compound 69, N-terminally truncated form of peptide 45]”, in the assay on T cell clone F, the “stimulation of clone F by truncated forms of peptide 45” value is given as “stimulate”.

Consider “VVVGAGVVGKSALAL [compound 64, N-terminally truncated form of peptide 43]”, for which the “stimulation of clone E by truncated forms of peptide 43” value with T cell clone E (10 μmolar) is “stimulate”.

As usually defined, the IC50 is the concentration that inhibits the measured activity by half.

Source of the values: patent US5961978A, “Therapeutically useful peptides and peptide fragments” (Norsk Hydro, a.s., priority 1991, dated 1999).
